Here are results for 15 compounds from paper PMC12202533, “Mechanistic Insights and Anti-cancer Activity of 2H-benzo[b][1,4]oxazin-3(4H)-one Linked 1,2,3-Triazoles in Human Cancer Cells” (Frontiers in Pharmacology, 2025).

Usually viability stands for a read-out of living cells in per cent, often relative to untreated cells. By IC50 is commonly meant the concentration at which inhibition is half-maximal. What is called inhibition is the share of the control response that was lost under treatment. A word on the GI50: it is the concentration at which growth is held to half of that of the control.

Like-named read-outs stand apart in the source and are kept apart here.

Data set [1] can be described thus: CCK-8 cell viability assay, normal cell line. In kind it is cell-based. The note with it: human, BEAS-2B cells (normal cell line), BEAS-2B normal cell line, read-out: Cell viability (100%), 40 μM, 48 h, BEAS-2B. As for the experimental part:
(§1) In order to investigate the anticancer activity of new synthetic 1,4-benzoxazinone-linked 1,2,3-triazole compounds, we chose several cancer cell lines, including A549 (lung), Huh7 (liver), MCF-7 (breast), HCT-116 (colon), and SKOV3 (ovary), and measured cell viability using the CCK-8 assay. Cells were exposed to 40 μM of the compounds for 48 h, and then cell viability was determined. […] In addition, we used the reference drug gefitinib as a positive control and measured its cell viability on different cell lines. […] We used BEAS-2B cells as a normal cell line to determine the toxic effects of these compounds on normal cells. […] Furthermore, we evaluated the IC50 of these compounds in A549.
(§2) Cells were cultured in DMEM or RPMI 1640 medium containing 10% FBS and 1% penicillin/streptomycin at 37°C and 5% CO2. The CCK-8 assay was performed on several human cancer cell lines, including A549, Huh7, MCF-7, HCT-116, and SKOV3, according to the manufacturer’s instructions. Cells were plated at a density of 5 × 10^3 cells per well in a 96-well plate. After 24 h of incubation, cells were treated with 40 μM compounds for 48 h. Cell viability was assessed by adding 10 μL of CCK-8 reagent, dissolved in the cell culture medium, and incubating for 1 h. Absorbance was measured at 450 nm using a microplate reader. IC50 values were determined using a dose-response curve with six concentrations (0, 10, 20, 40, 80, and 160 μM), and IC50 values were calculated using GraphPad Prism software.
(Tetrazolium dyes change colour on reduction, which living cells bring about.)

Data set [2] relates to A549. The data set is described as follows: CCK-8 cell viability assay and IC50 measurement. In kind it is cell-based, human. To be noted: for viability at 40 µM / IC50 / inhibition at 40 µM: Homo sapiens; for viability at 40 µM / inhibition at 40 µM: A549, 40 μM, 48 h; for viability at 40 µM: CCK-8, read-out: Cell viability (100%), 40 μM, 48 h, A549; for inhibition at 40 µM: read-out: inhibition rate. As for the experimental part:
as §1
(§3) Human cancer cell lines A549, Huh7, MCF-7, HCT-116, and SKOV3 were obtained from ATCC. The cells were cultured in DMEM or RPMI 1640 medium supplemented with 10% FBS and 1% penicillin/streptomycin and incubated at 37°C in a CO2-humidified atmosphere.
as §2

The test system of data set [3] is Huh7. The data set is described as follows: CCK-8 cell viability assay. In kind it is cell-based. To be noted: Homo sapiens, Huh-7, Huh7, 40 μM, 48 h, read-out: Cell viability (100%), 40 μM, 48 h, Huh7. As for the experimental part: as §1, §3, §2
The test system of data set [4] is HCT-116. The data set is described as follows: CCK-8 cell viability assay. In kind it is cell-based. The note with it: Homo sapiens, HCT-116, 40 μM, 48 h, read-out: Cell viability (100%), 40 μM, 48 h, HCT-116. How it is done:
as §1, §3, §2

The test system of data set [5] is SKOV3. The data set is described as follows: CCK-8 cell viability assay. In kind it is cell-based. The note with it: Homo sapiens, SK-OV-3, SKOV3, 40 μM, 48 h, read-out: Cell viability (100%), 40 μM, 48 h, SKOV3. As for the experimental part:
as §1, §3, §2

The subject of data set [6] is MCF-7. The data set is described as follows: CCK-8 cell viability assay. In kind it is cell-based. To be noted: Homo sapiens, MCF7, MCF-7, 40 μM, 48 h, read-out: Cell viability (100%), 40 μM, 48 h, MCF-7. How it is done: as §1, §3, §2
The subject of data set [7] is A549 cells. Also on record: method as in Bollu et al., 2017. The note with it: ref Bollu et al., 2017; cited from earlier work.
Data set [8] concerns A549 lung cancer cell. Also on record: method as in Zhou et al. (2014). The note with it: by inducing autophagy and cell cycle arrest; ref Zhou et al. (2014); cited from earlier work.
Data set [9] has as its system MV4-11. Also on record: method as in Rajitha et al., 2011. The note with it: ref Rajitha et al., 2011; cited from earlier work.
Data set [10] deals with A549. Set-up: method as in Rajitha et al., 2011. To be noted: ref Rajitha et al., 2011; cited from earlier work.
The subject of data set [11] is DLD-1. Set-up: method as in Rajitha et al., 2011. The note with it: ref Rajitha et al., 2011; cited from earlier work.
In data set [12] the test system is A549 cells. Set-up: method as in Yan et al., 2019. To be noted: ref Yan et al., 2019; cited from earlier work.
Data set [13] deals with PI3Kα. Also on record: method as in Yan et al., 2019. To be noted: ref Yan et al., 2019; read-out: IC50 against PI3Kα; cited from earlier work.
Data set [14] has as its system HeLa. Set-up: method as in Yan et al., 2019. The note with it: ref Yan et al., 2019; cited from earlier work.
On the set-up of data set [15]: method as in Yan et al., 2019. The note with it: mice; ref Yan et al., 2019; cited from earlier work.
For data set [16], the system named is HepG2 cells. Also on record: method as in Xie et al., 2023. To be noted: ref Xie et al., 2023, cited from earlier work.
In data set [17] the test system is topoisomerase I. Also on record: method as in El Hamaky et al., 2024. The note with it: ref El Hamaky et al., 2024; cited from earlier work.
In data set [18] the test system is topoisomerase II. Set-up: method as in El Hamaky et al., 2024. To be noted: ref El Hamaky et al., 2024; cited from earlier work.
For data set [19], the system named is HCT116 cells. Set-up: method as in El Hamaky et al., 2024. To be noted: ref El Hamaky et al., 2024, cited from earlier work.
For data set [20], the system named is tubulin polymerization. Set-up: method as in El Hamaky et al., 2024. To be noted: ref El Hamaky et al., 2024; cited from earlier work.
Data set [21] concerns HeLa cells. Set-up: method as in Srinivas Reddy et al., 2022. To be noted: ref Srinivas Reddy et al., 2022; cited from earlier work.
In data set [22] the test system is HCT116 cells. Also on record: method as in Mohammed et al., 2022. The note with it: MTT assay; ref Mohammed et al., 2022; cited from earlier work.
Data set [23] has as its target topoisomerase II. Set-up: method as in Mohammed et al., 2022. The note with it: ref Mohammed et al., 2022; cited from earlier work.
The mark [24] stands for this setting: A549, 48 h, read-out: IC50 48 h.
The mark [25] stands for this setting: A549, 72 h, read-out: IC50 72 h.

On to `O=C1COc2ccc(NC(=O)c3cccc(-c4cn(Cc5ccc(F)cc5Cl)nn4)c3)cc2N1` [Compound 13t], for which, in data set [1], the viability at 48 h, 40 µM stood at 103 ± 2.67%. Also, the viability at 40 µM was 96.6 ± 2.07% in data set [2]; 101 ± 3.53% in data set [3]; 114 ± 1.76% in [4]; 97.2 ± 1.54% in data set [5]; 97.9 ± 2.53% in data set [6].
As to `O=C1COc2ccc(NC(=O)c3cccc(-c4cn(-c5ccc(C(F)(F)F)cc5)nn4)c3)cc2N1` [Compound 14a], the viability at 48 h, 40 µM in data set [1] worked out at 111.6 ± 0.81%. Moreover, the viability at 40 µM is 88.4 ± 7.15% in data set [2]; 114 ± 1.46% in [3]; 110 ± 5.19% in data set [4]; 103 ± 2.87% in data set [5]; 101 ± 3.09% in data set [6].
As to `O=C1COc2ccc(NC(=O)c3cccc(-c4cn(-c5cccc(Cl)c5)nn4)c3)cc2N1` [Compound 14d], the viability at 48 h, 40 µM in [1] is 118 ± 2.43%. The IC50 in data set [2] (setting [24]) amounted to 38.7 ± 14.9 µM; in data set [2] (setting [25]), 34.8 ± 1.96 µM. The viability at 40 µM in data set [2] came out at 29.01 ± 0.13%; in data set [3], 141.3 ± 1.17%; in data set [4], 134 ± 3.97%; in data set [5], 90.5 ± 3.81%; in data set [6] it was 120 ± 2.54%. In data set [2], the inhibition at 40 µM is above 50%.
As for `O=C1COc2ccc(NC(=O)c3cccc(-c4cn(-c5ccccc5Cl)nn4)c3)cc2N1` [Compound 14e], the viability at 48 h, 40 µM in data set [1] stood at 97.5 ± 2.69%. Besides, the values for the half-inhibitory concentration (IC50) in [2] (setting [24]) and in data set [2] (setting [25]) were 29.1 ± 1.15 µM and 27.8 ± 0.96 µM, respectively. The viability at 40 µM was 46.5 ± 2.68% in [2]; 134.1 ± 0.79% in data set [3]; 118 ± 5.23% in data set [4]; 86.5 ± 4.84% in data set [5]; 127 ± 1.89% in data set [6]. Besides, in data set [2], the inhibition at 40 µM is above 50%.
As for `O=C1COc2ccc(NC(=O)c3cccc(-c4cn(-c5ccc(Br)cc5F)nn4)c3)cc2N1` [Compound 14f], in data set [1], the viability at 48 h, 40 µM is 90.98 ± 0.38%. For the same compound, the viability at 40 µM was found to be 39.6 ± 1.77% in [2]; 71.4 ± 1.66% in data set [3]; 80.62 ± 0.6% in data set [4]; 79.8 ± 2.53% in [5]; 74.2 ± 1.07% in data set [6]. Besides, the inhibition at 40 µM in data set [2] is above 50%.
Regarding `O=C1COc2ccc(NC(=O)c3cccc(-c4cn(-c5cc(Cl)ccc5F)nn4)c3)cc2N1` [Compound 14g], the viability at 48 h, 40 µM in data set [1] came to 103 ± 4.98%. For the same compound, the viability at 40 µM in data set [2] was determined as 28.2 ± 0.55%; in data set [3] it was 75.3 ± 1.09%; in data set [4], 74.8 ± 1.72%; in data set [5], 87.6 ± 1.3%; in data set [6], 45.5 ± 0.99%. In data set [2], the inhibition at 40 µM was above 50%.
For `COc1cc2ncnc(Nc3ccc(F)c(Cl)c3)c2cc1OCCCN1CCOCC1` [Gefitinib, reference compound], the viability at 48 h, 40 µM in data set [1] amounted to 82.11 ± 0.74%. In addition, in [2] (A549, CCK-8), the “activity on A549 cells (in words)” value is listed as “effective activity on A549 cells”. The viability at 40 µM in data set [2] was 31.1 ± 0.73%; in [3], 55 ± 0.76%; in data set [4], 75.2 ± 1.66%; in [5], 84.25 ± 0.32%; in [6], 63.73 ± 0.62%.
On to `COc1ccc(-c2nc3ccccc3c(=O)n2C/C=C/c2ccc(C(=O)CN3C(=O)COc4ccccc43)cc2)c(OC)c1OC` [compound 3], for which the GI50 in [7] is 0.32 µM.
For the compound `COc1cc(/C=C/C(=O)c2ccc3c(c2)NC(=O)CO3)cc(OC)c1` [compound 4], the “A549 lung cancer cell growth” value in data set [8] was “effectively suppressed”.
For `O=C1COc2ccc(-c3[nH]c(-c4ccc(C(F)(F)F)cc4)nc3-c3ccccc3)cc2N1` [compound 5], the “viability of MV4-11 cells” value in data set [9] was “significantly reduced”. The “viability of A549 cells” value in data set [10] is “significantly reduced”. Also, the “viability of DLD-1 cells” value in data set [11] was “significantly reduced”.
Turning to `COc1ccc(N2C(=O)COc3ccc(-c4cnc(OC)c(NS(=O)(=O)c5ccc(F)cc5)c4)cc32)cc1` [compound 6], the half-inhibitory concentration (IC50) in data set [12] is 1.22 µM; in data set [13], 0.00063 µM; in data set [14] it was 1.35 µM. Besides, in data set [15], the oral bioavailability entry is “good”.
In the case of `COc1c2n(cc(C(=O)Nc3cccc(-c4cn(-c5c(C)cc(C)cc5C)nn4)c3)c1=O)C[C@H]1OC[C@H](C)N1C2=O` [compound 7], the “apoptosis, G2/M phase arrest, and DNA damage” value in data set [16] (concentration-dependent) is “induced”. For the same compound, in data set [16], the IC50 was 4.07 ± 0.09 µM.
Consider `Cc1ccc(NC(=O)Cn2cc(CSc3nc4ccccc4c(=O)n3-c3ccccc3)nn2)cc1` [compound 8], for which, in [17], the “topoisomerase I inhibition” value is reported as “significantly inhibited”. Also, in [18], the “topoisomerase II inhibition” value is recorded as “significantly inhibited”. For the same compound, in data set [19] (HCT116), the γ-H2AX protein expression result is given as “upregulated”. Further, in data set [19], the 50% inhibitory concentration (IC50) was 4.87 ± 0.78 µM. The tubulin polymerization inhibition result in data set [20] is “significantly inhibited”.
Consider `N#Cc1ccc(-n2nnc3c2-c2cc(Cl)c4cccnc4c2OC3)cc1` [compound 9], for which the concentration for half-maximal inhibition (IC50) in data set [21] is 3.38 ± 1.14 µM.
As for `COc1ccc(/C=C/C(=O)c2ccc(-n3cc(CN4CCN(c5cc6c(cc5F)c(=O)c(C(=O)O)cn6C5CC5)CC4)nn3)cc2)cc1OC` [compound 10], the IC50 in data set [22] was 10.6 ± 0.8 µM; in [23], 19.7 ± 0.79 µM.
